Reference: patent US6433003B1 (priority 1999, dated 2002)

Legend:
hyperhidrosis [1] = conditions: in vivo; cited from earlier work
hyperhidrosis [2] = conditions: human, in vivo
[3] = in vivo; cited from earlier work
[4] = tested on: gustatory sweating associated with diabetic autonomic neuropathy; conditions: in vivo; cited from earlier work
hyperhidrosis [5] = conditions: in vivo; cited from earlier work; remark: listed apart in the source

For `C[N+]1(C)CCC(OC(=O)C(O)(c2ccccc2)C2CCCC2)C1.[Br-]` (centres unmarked) [glycopyrrolate], the “duration of reduction of the hyperhidrosis” value (hyperhidrosis [1]) is given as “up to 4 weeks”, the side effects (hyperhidrosis [1]) is given as “abdominal discomfort” and the “perspiration associated with the hyperhidrosis” value (hyperhidrosis [2]) is given as “reduction in the perspiration”. For the same molecule, the “unwanted perspiration at the location where the glycopyrrolate is applied” value (hyperhidrosis [2]) was “reduces the unwanted perspiration”, the side effects [3] was “few side effects” and the gustatory sweating [4] was “prevented the gustatory sweating”.

In the case of botulinum A neurotoxin [BOTOX], the benefit in hyperhidrosis (hyperhidrosis [5]) is given as “statistically significant benefit” and the duration of effect (hyperhidrosis [5]) is given as “several months”.
